Measurements published in patent publication US6093738A, “Proton pump inhibitors” (priority 1997, dated 2000).
pIC50: −log10 of the molar value. One block for each compound: values may come before it.

Legend:
[1] = system: cAMP stimulated acid secretion, mouse gastric glands; assay: cAMP stimulated acid secretion (14C-aminopyrine accumulation) in isolated mouse gastric glands; format: cell-based; settings: 100 μM, 60 min, 37° C.
Description: (§1) Acid secretion is measured indirectly by the accumulation of the weak base ^14 C-aminopyrine in the isolated murine gastric glands of mouse. The assay is performed in polypropylene eppendorf tubes containing 0.5 mL of resuspended mouse gastric glands. In addition, tubes contain the tested drug, acid secretagogues (e.g. histamine, di-butyryl cyclic AMP (cAMP), carbachol) and ^14 C-aminopyrine. Tubes are incubated for 60 min. at 37° C. and continuously rotated. The reaction is stopped by centrifugation of the gland suspension for five min. at 1500 g. Supernatant is aspirated leaving the pellet containing intact gastric glands. The pellet is washed extensively and digested overnight in 1 mL of Protosol (Amersham). After neutralisation with acetic acid and addition of scintillation fluid, the radioactivity is counted in a beta-counter (Beckman). The amount of radioactivity trapped in the pellet corresponds directly with the amount of acid being secreted. Each experimental point is done in triplicate. In each experiment, energy independent consumption was estimated with 0.1 mM of dinitrophenol and basal acid secretion in the absence of acid stimulants. These values were then subtracted from corresponding results in order to calculate basal or secretagogue stimulated acid secretion. […] Each experiment is repeated a number of times and all results are expressed as a % of the maximum stimulation.

[2] = system: histamine stimulated acid secretion, mouse gastric glands; assay: Histamine stimulated acid secretion (14C-aminopyrine accumulation) in isolated mouse gastric glands; format: cell-based; settings: 100 μM, 60 min, 37° C.
Description: as §1

[3] = system: gastric acid secretion, mouse gastric glands; assay: In vitro inhibition of gastric acid secretion (14C-aminopyrine accumulation) in isolated mouse gastric glands, secretagogue not stated; format: cell-based; settings: 1 h, 60 min, 37° C., read-out: ED50 (the source's name)
[4] = Reaction with phenethyl mercaptan in methanol (chemical model of proton pump thiol reactivity); settings: for conversion to 2-mercaptobenzimidazole on reaction with phenethyl mercaptan / time after which reaction with phenethyl mercaptan is complete: methanol
Text: A useful in vitro model for obtaining an indication of the reactivity of thiadiazole compound towards the proton pump enzyme for deactivation thereof is provided by the reactivity of the thiadiazole compound towards phenethylmercaptan. The chemical mechanism of this process, as applied to the thiadiazolobenzimidazole compounds of the present invention, is diagrammatically illustrated on FIG. 3 of the accompanying drawings. The first stage of reaction forms a disulfide compound by cleavage of the S--N bond of the thiadiazole ring. This disulfide X cannot be isolated, since it reacts very rapidly with a second mercaptan group to give the disulfide of phenethylmercaptan and intermediate XI. In connection with the actual enzyme, the second step involving attack of another thiol group would not happen because of steric factors inhibiting the approach of two enzymes, or would lead to the formation of a disulfide bond in the event that another proximal thiol group is present. In both cases, this would lead to the inhibition of the enzyme. In some cases, intermediate XI further degrades to 2-mercaptobenzimidazole VIII or 1-cyano-2-mercaptobenzimidazole XII. A similar mechanism is followed by the imidazothiadiazoles of the present invention. Further description and discussion of this reaction and test method is included in the specific example section hereof.
To a solution of 23 mg of 3-(dimethylamino)-1,2,4-thiadiazolo[4,5-a]benzimidazole in 10 mL of methanol was added 360 μL of phenethyl mercaptan. After 1 min, the reaction is complete. The solvent was evaporated and the crude material was purified by chromatography to give 15 mg of N^1, N^1 -dimethyl-2-mercapto-1-benzimidazolylamidine: ^1 H NMR (DMSO-d6) δ 7.3-7.0 (m, 4H, 4×ArH), 3.35 (br s, 2H, NH, SH), 2.88 (s, 6H, 2×NCH3) ppm; IR (KBr) .nu. 3210, 1641, 1475, 1452, 1407, 1319 cm^-1; MS m/z 220 (M+), 150 (M^+ -Me2 NC=NH).
To a solution of 23 mg of 3-methoxy-1,2,4-thiadiazolo [4,5-a]benzimidazole in 10 mL of methanol was added 376 μL of phenethyl mercaptan. After 1 min, the reaction is complete. The methyl 2-mercapto-1-benzimidazolecarboximidate was identified as the major reaction product of the reaction: ^1 H NMR (DMSO-d6) δ 13.45 (br s, 1H, SH or NH), 9.8 (s, 1H, NH or SH), 7.7 (d, 1H, J=8 Hz, ArH), 7.35-7.2 (m, 3H, 3×ArH), 3.95 (s, 3H, OCH3) ppm; IR (KBr) .nu. 3437, 3095, 1679, 1450, 1440, 1376, 1193, 735 cm^-1; MS m/z=207 (M^+), 150 (M^+ -MeOC=NH)
To a suspension of 26 mg of 3-(oxophenylmethyl)-1,2,4-thiadiazolo[4,5-a]benzimidazole in 10 mL methanol was added 31 μL of phenethyl mercaptan.
To a suspension of 25 mg of 3-[hydroxy(4-methoxy-3,5-dimethyl-2-pyridyl)methyl]-1,2,4-thiadiazolo[4,5- a]benzimidazole in 10 mL methanol was added 250 μL of phenethyl mercaptan.
To a suspension of 31 mg of 3-[(4-methylphenyl) sulfonyl]-1,2,4-thiadiazolo[4,5-a]benzimidazole in 10 mL methanol was added 313 μL of phenethyl mercaptan.
Phenethyl mercaptan (120 μL, 0.90 mmol) was added to a suspension of 3-[(4-4-methoxy-3,5-dimethyl-2-pyridyl) oxomethyl]-1,2,4-thiadiazolo[4,5-a]benzimidazole (300 mg, 0.887 mmol) in methanol (150 ml) and 0.1 M hydrochloric acid (38 mL). After stirring the mixture at room temperature for 51 h, the mixture was neutralized to pH 6 with aqueous sodium bicarbonate and extracted with ethyl ether. The ether layer was dried on sodium sulfate and evaporated.

[5] = Reaction of 1,2,4-thiadiazolo[4,5-a]benzimidazole derivative with 2-mercaptoethanol, determination of t1/2 values; settings: compound 5×10^-3 M, 2-mercaptoethanol 1.15×10^-2 M, methanol, R.T., HPLC; 5000 µM
Description: The column is eluted with 70% 50 mM ammonium acetate; 30% acetonitrile as the mobile phase.
Percentage reaction completion was calculated as follows:
At time 0, 100% starting material remained unreacted.
At time t, % of unreacted starting material={hsample /hint.std at
time t}/{hsample /hint.std at time O}*100%.

[6] = Acid stability in 6 molar hydrochloric acid; format: physicochemical; settings: minimum methanol, room temperature
Description: To examine acid stability of the captioned compound, the compound was dissolved in a minimum volume of methanol and the resulting solution was added to a 6 molar solution of hydrochloric acid.

gastric acid secretion [7] = assay: Meal (8% peptone)-stimulated gastric acid secretion in rats; format: in vivo, Sprague-Dawley rats; settings: rat, oral gavage, 300 μmol/kg
Description: Fasted, adult (140-240 g), male, Sprague-Dawley rats were fasted for 24 h from food, but not water, and then treated by oral gavage with 1 to 1.5 mL total volume of compound of Formula I (300 μmmol/Kg) on different days. Two hours later, rats were anesthetized with a combination of pentobartital and thiopental, the abdomen was opened and the pylorus was ligated, and tracheal, gastric, and peripheral venous canulas were placed. The stomachs were lavaged with 10 mL 0.9% saline every 10 min. for 30 min and the gastric effluent collected in receptacles to determine the basal acid secretion. Acid output was determined in each gastric effluent sample by back-titration to pH 7.0 using 0.02M NaOH. Then, 5 mL of an 8% peptone meal (pH 5.5) was instilled into the stomachs, mixed, and drained after 10 min each time for 2 hours. Acid output was determined in each gastric effluent containing the peptone meal by back-titration to pH 5.5 using 0.02 M NaOH.

gastric acid secretion [8] = assay: Histamine-stimulated gastric acid secretion in anesthetized rats (dose-dependent study); format: in vivo, Sprague-Dawley rats; settings: rat, oral gavage, at 3, 30, 300 μmol/kg doses; histamine 5 mg/kg i.v. infusion 2 h
Description: Fasted, adult (140-240 g), male, Sprague-Dawley rats were fasted for 24 h from food, but not water, and then treated by oral gavage with 1 to 1.5 mL total volume of 4 different doses (0.3, 3, 30, and 300 μmol/kg) of each compound on different days. Two hours later, rats were anesthetized with a combination of pentobartital and thiopental, the abdomen was opened and the pylorus was ligated, and tracheal, gastric, and peripheral venous canulas were placed. The stomachs were lavaged with 10 mL 0.9% saline every 10 min. for 30 min and the gastric effluent collected in receptacles. Acid output was determined in each gastric effluent sample by back-titration to pH 7.0 using 0.02M NaOH. Then, 5 mL of an 8% peptone meal (pH 5.5) was instilled into the stomachs, mixed, and drained after 10 min each time for 2 hours. Acid output was determined in each gastric effluent sample by back-titration to pH 7.0 using 0.02 M NaOH. After measuring basal acid output for at least 30 minutes, acid output was then measured during a 2 h intravenous infusion of histamine (5 mg/kg).

Solubility in water = format: physicochemical
gastric acid secretion [9] = assay: Suppression of gastric acid secretion in animal model; format: in vivo

Compound: CN1CCN(c2nsc3nc4ccccc4n23)CC1.Cl.Cl [3-(4-methyl-1-piperazinyl)-1,2,4-thiadiazolo[4,5-a]benzimidazole dihydrochloride]
inhibition of cAMP stimulated acid secretion [1]: completely inhibited | inhibition of histamine stimulated acid secretion [2]: completely inhibited | pIC50 [3]: 4.30

Compound: O=C(c1ccccc1)c1nsc2nc3ccccc3n12 [3-(oxophenylmethyl)-1,2,4-thiadiazolo[4,5-a]benzimidazole]
conversion to 2-mercaptobenzimidazole on reaction with phenethyl mercaptan [4]: complete conversion

Compound: COc1c(C)cnc(C(=O)c2nsc3nc4ccccc4n23)c1C [3-[(4-methoxy-3,5-dimethyl-2-pyridyl)oxomethyl]-1,2,4-thiadiazolo[4,5-a]benzimidazole]
recovered starting material after reaction with phenethyl mercaptan ([4]; methanol and 0.1 M hydrochloric acid, room temperature, 51 h): 14.6%

Compound: Cc1ccc(S(=O)(=O)c2nsc3nc4ccccc4n23)cc1 [3-[(4-methylphenyl)sulfonyl]-1,2,4-thiadiazolo[4,5-a]benzimidazole]
conversion to 2-mercaptobenzimidazole on reaction with phenethyl mercaptan [4]: complete conversion

Compound: COc1c(C)cnc(C(O)c2nsc3nc4ccccc4n23)c1C (stereo not shown) [3-[hydroxy(4-methoxy-3,5-dimethyl-2-pyridyl)methyl]-1,2,4-thiadiazolo[4,5-a]benzimidazole]
conversion to 2-mercaptobenzimidazole on reaction with phenethyl mercaptan [4]: complete conversion

Compound: Cc1nsc2nc3ccccc3n12 [methyl, 3-methyl-1,2,4-thiadiazolo[4,5-a]benzimidazole]
t1/2 at pH = 7.0 [5]: 59 h

Compound: c1ccc(-c2nsc3nc4ccccc4n23)cc1 [phenyl]
t1/2 at pH = 7.0 [5]: 45 h

Continued, in another order:

t1/2 at pH = 7.0 [5]: 6.7 h
Compound: CN1CCN(c2nsc3nc4ccccc4n23)CC1 [4-methylpiperazinyl, 3-(4-methyl-1-piperazinyl)-1,2,4-thiadiazolo-[4,5-a]benzimidazole]

solubility in water (Solubility in water): limited solubility in water
Compound: COc1ccc2c(c1)nc1snc(C(=O)c3ncc(C)c(OC)c3C)n12 [7-methoxy-3-[(4-methoxy-3,5-dimethyl-2-pyridyl)oxomethyl]-1,2,4-thiadiazolo[4,5-a]benzimidazole]
acid stability [6]: very stable in acid and was totally recovered after stirring for 48 hours at room temperature | inhibition of meal-stimulated acid secretion (gastric acid secretion [7]): significant (p<0.05) inhibition | acid output after 1 h (gastric acid secretion [7]; 8% peptone stimulated, after 1 h): 20 μmmol/30 min | inhibition of histamine-stimulated acid secretion (gastric acid secretion [8]): significant (p<0.05) inhibition | suppression of gastric acid secretion (gastric acid secretion [9]): active in the suppression of gastric acid secretion

t1/2 at pH = 7.0 [5]: 134 h
Compound: c1ccc(-c2nsc3nc4ccccc4n23)nc1 [Example 2-pyridyl, 3-(2-pyridyl)-1,2,4-thiadiazolo[4,5-a]benzimidazole]

t1/2 at pH = 7.0 [5]: 1.5 h
Compound: CN(C)c1nsc2nc3ccccc3n12 [Me2 N, 3-(dimethylamino)-1,2,4-thiadiazolo[4,5-a]benzimidazole]
time after which reaction with phenethyl mercaptan is complete [4]: ≤ 1 min

t1/2 at pH = 7.0 [5]: 0.31 h
Compound: COc1nsc2nc3ccccc3n12 [MeO, 3-methoxy-1,2,4-thiadiazolo[4,5-a]benzimidazole]
time after which reaction with phenethyl mercaptan is complete [4]: ≤ 1 min

acid stability [6]: complete decomposition in a few minutes
Compound: COc1ccc2[nH]c([S+]([O-])Cc3ncc(C)c(OC)c3C)nc2c1 (stereo not shown) [Omeprazole, reference compound]

t1/2 at pH = 7.0 [5]: 110 h
Compound: CC(=O)c1nsc2nc3ccccc3n12 [acetyl, 3-(1-oxoethyl)-1,2,4-thiadiazolo[4,5-a]benzimidazole]

t1/2 at pH = 7.0 [5]: 2.4 h
Compound: c1ccc2c(c1)nc1snc(N3CCOCC3)n12 [morpholino, 3-(4-morpholinyl)-1,2,4-thiadiazolo[4,5-a]benzimidazole]

t1/2 at pH = 7.0 [5]: 98 h
Compound: c1ccc2c(c1)nc1snc(CN3CCOCC3)n12 [morpholinomethyl, 3-(morpholinomethyl)-1,2,4-thiadiazolo[4,5-a]benzimidazole]
